What was measured:
[1] = tested on: dynein-driven microtubule sliding in spoke-deficient axonemes; test: Microtubule sliding velocity in spoke-deficient axonemes; type: biochemical, Chlamydomonas reinhardtii; conditions: for effect on velocity of microtubule sliding: spoke-deficient mutants (pf14, pf17)
[2] = molecular target: cyclic nucleotide-dependent kinases; conditions: inhibition of cyclic nucleotide-dependent kinases; ref Hidaka et al., 1984; cited from earlier work
[3] = molecular target: protein kinase C; conditions: ref Hidaka et al., 1984; cited from earlier work
[4] = molecular target: myosin light chain kinase; conditions: ref Hidaka et al., 1984; cited from earlier work
[5] = tested on: dynein-driven microtubule sliding in wild-type 137c axonemes; test: Microtubule sliding velocity in wild-type; type: biochemical, Chlamydomonas reinhardtii
[6] = tested on: dynein-driven microtubule sliding in pf14 axonemes; test: Microtubule sliding velocity in isolated pf14 axonemes; type: biochemical, Chlamydomonas reinhardtii; conditions: pf14, 10 μM cAMP alone (Fig. 4), mean from 20 measurements
[7] = molecular target: PKI-sensitive kinase activity; conditions: demembranated ram sperm, treatment with cAMP; ref San Agustin and Witman, 1994; cited from earlier work
[8] = tested on: catalytic subunit of cAPK; conditions: demembranated rat sperm; ref Horowitz et al., 1984; cited from earlier work
[9] = tested on: pf17 axonemes; test: In vitro reactivation of beating of pf17 axonemes; type: biochemical, Chlamydomonas reinhardtii; conditions: pf17 axonemes with PKI, preliminary experiments
[10] = tested on: dynein-driven microtubule sliding in pf17 axonemes; test: Microtubule sliding velocity in isolated pf17 axonemes; type: biochemical, Chlamydomonas reinhardtii
[11] = tested on: inner arm dyneins; type: biochemical, Chlamydomonas reinhardtii
[12] = tested on: dynein-driven microtubule sliding in pf14pf28 axonemes; test: Microtubule sliding velocity in pf14pf28 axonemes; type: biochemical, Chlamydomonas reinhardtii
[13] = molecular target: cAMP-dependent protein kinase (cAPK); conditions: ref Glass et al., cited from earlier work
[14] = tested on: dynein-driven microtubule sliding in pf18 axonemes; test: Microtubule sliding velocity in pf18 axonemes; type: biochemical, Chlamydomonas reinhardtii; conditions: pf18, 100 nM PKI; Habermacher, G., unpublished results

CC1CNCCN1S(=O)(=O)c1cccc2cnccc12 (centres unmarked) [H-7]
effect on sliding velocity ([1]; H-7, spoke-deficient axonemes, data not shown): increases
effect on velocity of microtubule sliding [1]: increased to wild-type level

Cl.N=C(N)NCCNS(=O)(=O)c1cccc2cnccc12 [HA-1004, N-(2-guanidinoethyl)-5-isoquinolinesulfonamide hydrochloride]
Ki [2]: 1 to 3 µM
Ki [3]: 40 µM
dose dependence of sliding velocity stimulation ([1]; spoke-deficient axonemes): dose dependent
effect on velocity of microtubule sliding [1]: increased to wild-type level
Ki [4]: 150 µM
effect on microtubule sliding velocity ([5]; wild-type, 15 μM HA-1004, not shown): had no effect

Nc1ncnc2c1ncn2[C@@H]1O[C@@H]2COP(=O)(O)O[C@H]2[C@H]1O [cAMP]
effect on microtubule sliding velocity [6]: had no effect
effect on RII-induced increase in sliding ([1]; 10 μM cAMP added to spokeless axonemes reconstituted with RII): reversed the effect of RII
PKI-sensitive kinase activity remaining bound after cAMP [7]: ≤ 50%
release of catalytic activity [8]: releases most of the catalytic activity

RII: regulatory subunit of bovine cardiac type II cAPK (Promega)
effect of RII on microtubule sliding ([1]; spoke-deficient axonemes, type-II regulatory subunit of cAPK): increased microtubule sliding to wild-type velocity

Thr-Tyr-Ala-Asp-Phe-Ile-Ala- Ser-Gly-Arg-Thr-Gly-A_rg-Arg-Aan-Ala-Ile-NH2 [PKI, PKI(6-22)amide]
reactivation of in vitro beating [9]: unable to reactivate
efficacy of PKI versus NAcPKI ([10]; pf17, 100 nM (Fig. 2a)): no detectable difference
effect on microtubule sliding velocity ([10]; pf17, 100 nM peptide (Fig. 2a), PKI and NAcPKI P < 0.01 vs control or triAlaPKI): significantly increased
sliding velocity with control dynein on extracted PKI-treated axonemes (PKIAxos) ([11]; pf14pf28, 100 nM PKI (Fig. 6), two experiments pooled): only slow
sliding velocity of PKI-treated axonemes before extraction vs control axonemes ([11]; pf14pf28, 100 nM PKI, Pre-Extr (Fig. 6), P < 0.05): significantly greater
dose dependence of sliding velocity stimulation ([1]; spoke-deficient axonemes): dose-dependent
effect on velocity of microtubule sliding [1]: increased to wild-type level
effect on microtubule sliding velocity ([12]; pf14pf28, 100 nM PKI (Fig. 5), P < 0.001): significantly increased
effect on microtubule sliding vs pf28 control velocity ([12]; pf14pf28, PKI): increased microtubule sliding to control (pf28) velocity
Ki ([13]; inhibition of cAPK, 1989): 0.0016 to 0.0025 µM
specificity of cAPK inhibition [13]; 1986: high degree of specificity
effect on velocity of microtubule sliding [14]: significantly increased to wild-type levels
effect on microtubule sliding velocity ([5]; wild-type 137c, 0-200 nM PKI (Fig. 2b)): did not affect

Source: publication PMC2120320 (The Journal of Cell Biology, 1994)
